SMILES strings stand for the structures.

The nature of this data set: Human HepG2 cell viability assay in 384 well format. Type of data set: toxicity, cell-based. More on the design: dose 125 nL, time 70.5 hour; concentration not given beside the values. The note with it: HepG2 cells, read-out: Inhibition.
With `Cc1cccc(CN2CCC(C3Nc4ccccc4S(=O)(=O)N3)CC2)n1` (centres undefined), the cytotoxicity at 70.5 h was -2.6%.

`Cc1ccc2c(c1)C(=O)NCC1(CCN(C(=O)c3sccc3C)CC1)O2`: the cytotoxicity at 70.5 h was -5.39%.

For the compound `Cc1ccc2c(c1)C(=O)NCC1(CCN(C(=O)c3cnccn3)CC1)O2`, the cytotoxicity at 70.5 h was -11%.

Turning to `Cc1cc2c(=O)n3c(nc2s1)CCN(C(=O)c1ccnn1C)CC3`, the cytotoxicity at 70.5 h is -8.17%.

With `CCCC(=O)N1CCC(c2cc3n(n2)[C@@H](C(F)(F)F)C[C@@H](C)N3)CC1`, the cytotoxicity at 70.5 h is -3.97%.

Consider `Cc1ccc(S(=O)(=O)N2C[C@H]3C[C@H](NC(=O)c4cscn4)[C@H]3C2)cc1`, for which the cytotoxicity at 70.5 h was found to be 9.07%.

As for `Cc1ccc(-c2cc(N)c(=O)n(C(C)C(=O)NCC3CCCCC3)n2)s1` (centres undefined), the cytotoxicity at 70.5 h turned out to be 18%.

Turning to `Cc1ccc(-c2cc(N)c(=O)n(CC(=O)NC3CCCC3)n2)s1`, the cytotoxicity at 70.5 h is 13%.

In the case of `Cc1ccc2c(c1)C(=O)NCC1(CCN(C(=O)c3csc(C)c3)CC1)O2`, the cytotoxicity at 70.5 h was -9.12%.

`Cc1ccc2c(c1)C(=O)NCC1(CCN(C(=O)c3scnc3C)CC1)O2`: the cytotoxicity at 70.5 h was -6.59%.

In the case of `Clc1ccccc1CN1CCCC(c2nnc(-c3cnccn3)o2)C1` (centres undefined), the cytotoxicity at 70.5 h is -5.49%.

Consider `Cn1nccc1C(=O)N1C[C@@H]2CC[C@H](Oc3cccc(F)c3)[C@@H]2C1`, for which the cytotoxicity at 70.5 h is -3.82%.

Regarding `NCc1cnn(-c2ccccc2C(=O)NCc2ccccn2)c1`, the cytotoxicity at 70.5 h was -5.83%.

Take `Cc1noc(CNC(=O)c2ccccc2-n2cc(CN)cn2)n1`: the cytotoxicity at 70.5 h is -5.09%.

As to `CN(CC1(O)CCCN(c2ccccn2)C1)C(=O)CC1CCOCC1` (centres undefined), the cytotoxicity at 70.5 h was -9.69%.

Consider `Cn1cc(CN2CC[C@H](O)[C@@H](n3ccc(=O)[nH]c3=O)CC2)cn1`, for which the cytotoxicity at 70.5 h turned out to be 12.4%.

With `Cc1noc(C)c1-c1cncc(C2CCCN2Cc2cc[nH]n2)n1` (centres undefined), the cytotoxicity at 70.5 h was -3.25%.

With `CN(C)CC(=O)N1CCCCC1c1nc(N)ncc1-c1ccccc1` (centres undefined), the cytotoxicity at 70.5 h amounted to 5.62%.

Turning to `CC(=O)N1CCCC(Cc2cnc(C(=O)N3CCC(C)CC3)cn2)C1` (centres undefined), the cytotoxicity at 70.5 h was -5.67%.

`CCn1ccc(C(=O)N2CCCC2(C)c2nc(C)cc(N(C)C)n2)n1` (centres undefined): the cytotoxicity at 70.5 h is -7.92%.

On to `CN1CCCC(Cc2cncc(C(=O)N3CCOCC3)c2)C1` (centres undefined), for which the cytotoxicity at 70.5 h turned out to be 12.9%.

In the case of `Cc1ccc(S(=O)(=O)N2CCC(c3n[nH]cc3C)C2)cc1` (centres undefined), the cytotoxicity at 70.5 h is -1.04%.

With `COc1ccc(CN2CCC(c3nccnc3-n3ccnc3)CC2)cc1`, the cytotoxicity at 70.5 h is -5.25%.

Turning to `OCCN1CCCC(c2nccnc2Oc2ccccc2)C1` (centres undefined), the cytotoxicity at 70.5 h is -6.87%.

In the case of `CN(C)C(=O)CN1CCCC1c1nc(N)ncc1-c1ccc(F)cc1` (centres undefined), the cytotoxicity at 70.5 h was 2.44%.

Consider `CC(C)CC(NC(=O)CSCC(N)=O)c1cccs1` (centres undefined), for which the cytotoxicity at 70.5 h was -5.44%.

As to `COc1ccccc1CC1CCCN1C(=O)c1cn[nH]c1C` (centres undefined), the cytotoxicity at 70.5 h is -4.05%.

As for `CN(C(=O)OC(C)(C)C)C1CCN(C(=O)c2cc(Cl)c[nH]2)C1` (centres undefined), the cytotoxicity at 70.5 h worked out at 13%.

`O=C(c1cnc(-c2ccccc2)nc1)N1CCOC2(CCCC2)C1`: the cytotoxicity at 70.5 h is -8.9%.

`CNC(=O)CN(C)S(=O)(=O)c1c(Br)cc2[nH]c(=O)oc2c1Cl`: the cytotoxicity at 70.5 h is -3.9%.

In the case of `Cc1nn(C)c2ncc(NC(=O)N(C)Cc3cc(Cl)cn3C)cc12`, the cytotoxicity at 70.5 h was -4.9%.

For `NC(=O)N1CCCN(CCCSCc2ccccc2)CC1`, the cytotoxicity at 70.5 h was -17.6%.

For `FC(F)Oc1ccc(CNCc2cc(Br)c3c(c2)OCO3)cc1`, the cytotoxicity at 70.5 h was -6.89%.

Take `CCN(CC1CCOC1)S(=O)(=O)Cc1cc(Cl)ccc1OC` (centres undefined): the cytotoxicity at 70.5 h was -14.8%.

`CC(=O)N1CCCN(CCCc2ccccc2)CC1`: the cytotoxicity at 70.5 h is -6.32%.

On to `CC(C)c1nnc2n1CCN(Cc1ccc3c(c1)OCCO3)C2`, for which the cytotoxicity at 70.5 h is 0.93%.

Take `CCC(C)NC(=O)c1sccc1-n1cnnn1` (centres undefined): the cytotoxicity at 70.5 h was 27.2%.

Regarding `CC(C)OCCCNC(=O)CN1CCN(c2nccs2)CC1`, the cytotoxicity at 70.5 h was -4.41%.

For `Cc1cnn(C2CN(c3ccccc3S(=O)(=O)C(F)(F)F)C2)c1`, the cytotoxicity at 70.5 h was 1.3%.

For `Cn1nc(C(=O)NCc2ccc(OC3CCCCC3)nc2)ccc1=O`, the cytotoxicity at 70.5 h was determined as 21.9%.

For the compound `COc1ccc2c(c1)OCC(CNC1CCc3ncnn3C1)=C2` (centres undefined), the cytotoxicity at 70.5 h is -0.263%.

As to `CC(c1ccc(F)cc1F)N1CCN(CCC(=O)NC(N)=O)CC1` (centres undefined), the cytotoxicity at 70.5 h was -6.26%.

With `CC(c1ccc(F)cc1F)N1CCN(CCN2CCCC2=O)CC1` (centres undefined), the cytotoxicity at 70.5 h was -4.44%.

With `CC(c1nc(C2CC2)no1)N1CCc2c(ncn2C2CC2)C1` (centres undefined), the cytotoxicity at 70.5 h was -7.1%.

With `Cc1ccc(C(=O)NCc2cc(F)ccc2N2CCCN(C)CC2)o1`, the cytotoxicity at 70.5 h worked out at 1.17%.

For `CCc1nnc(CS(=O)(=O)c2ccc(C)c(C)c2)n1C`, the cytotoxicity at 70.5 h worked out at 26.2%.

Take `CC(OCC1CC1)C(=O)Nc1cccc(C(=O)Nc2ccccn2)c1` (centres undefined): the cytotoxicity at 70.5 h is -8.38%.

As to `Cc1cc(C)n(CCN2CCC(N(C)Cc3nnc(C)n3C)C2)n1` (centres undefined), the cytotoxicity at 70.5 h was -0.44%.

As for `CC1CN(CC(=O)NCc2ccc(F)cc2)CCN1c1nccs1` (centres undefined), the cytotoxicity at 70.5 h came out at 0.122%.

For `CN1CCCN(c2ccc(F)cc2CNC(=O)c2ccsc2)CC1`, the cytotoxicity at 70.5 h is -4.69%.

As for `COc1cc(NC(=O)N(C)CCC2CC2)ncn1`, the cytotoxicity at 70.5 h came to 19.9%.

Take `Cc1nncn1CCNC(=O)C1SCCc2sccc21` (centres undefined): the cytotoxicity at 70.5 h is -3.34%.

For the compound `Cc1cnn(CCNCc2cc(=O)n3cc(Cl)ccc3n2)c1`, the cytotoxicity at 70.5 h is -6.7%.

Turning to `Cc1cnn(CC(C)NCc2cc(=O)n3ccccc3n2)c1` (centres undefined), the cytotoxicity at 70.5 h was -11.2%.

On to `Cc1ccc(NC(=O)c2cccc(N(C)C)c2)nc1`, for which the cytotoxicity at 70.5 h is -8.66%.

On to `CC(C)(NCc1cccc(C(N)=O)c1)c1ccc2c(c1)OCO2`, for which the cytotoxicity at 70.5 h is -10%.

Turning to `CC(C)(NCc1cccc(O)c1)c1ccc2c(c1)OCO2`, the cytotoxicity at 70.5 h was -11.8%.

For `CC(C)(NCc1cccc(C#N)c1)c1ccc2c(c1)OCO2`, the cytotoxicity at 70.5 h is -9.81%.

Consider `NC1(c2nc(-c3cccs3)cc(=O)[nH]2)CCCCC1`, for which the cytotoxicity at 70.5 h stood at 7.44%.

Take `NC1(c2nc(-c3ccccc3)cc(=O)[nH]2)CCCC1`: the cytotoxicity at 70.5 h turned out to be 13.8%.

As to `Cc1ncncc1C(=O)N1CCCN(Cc2nccn2C(C)C)CC1`, the cytotoxicity at 70.5 h is -8.96%.

Turning to `O=C(NCCO)Nc1c(F)cccc1Oc1ccccc1`, the cytotoxicity at 70.5 h was -7.66%.

As to `CCc1ncc2c(n1)CN(CC(=O)NC1CCCCNC1=O)CC2` (centres undefined), the cytotoxicity at 70.5 h was found to be 1.9%.

`COCCN(C(=O)c1cc(C)no1)c1ccc(C#N)cc1`: the cytotoxicity at 70.5 h was -8.51%.

With `Cn1c(C2CC2)nc2c1CCN(CC(=O)NC1CCCCNC1=O)C2` (centres undefined), the cytotoxicity at 70.5 h was -7.85%.

Consider `CN(C)CCN(C)S(=O)(=O)Cc1ccc(Br)cc1`, for which the cytotoxicity at 70.5 h was found to be 11.7%.

For the compound `CN1CCC(N(Cc2ccccc2)C(=O)c2ccn3cncc3c2)CC1`, the cytotoxicity at 70.5 h was found to be 3.64%.

Consider `COc1ccc(C(=O)NC2COc3ccccc3C2)cc1OCC(=O)O` (centres undefined), for which the cytotoxicity at 70.5 h is -4.51%.

On to `CC(C)(C)OC(=O)N1CCCN(Cc2ccon2)c2ccccc21`, for which the cytotoxicity at 70.5 h was 9.4%.

`COCCN1CCN(CC(=O)NC2(C#N)CCCC2)CC1`: the cytotoxicity at 70.5 h was -8.93%.

For `CCC1CN(CC(=O)NC2(C#N)CCCC2)CCN1CCOC` (centres undefined), the cytotoxicity at 70.5 h was -6.19%.

As for `COCCN1CCN(CC(=O)NC2(C#N)CCCC2)CC1C` (centres undefined), the cytotoxicity at 70.5 h worked out at 7.99%.

With `CN1CCC(N(Cc2ccccc2)C(=O)c2nccn3ccnc23)CC1`, the cytotoxicity at 70.5 h was -7.08%.

As for `CCN(CC)CCn1cc(NC(=O)Nc2ccccc2OC)cn1`, the cytotoxicity at 70.5 h was -11.6%.

Take `CCc1noc(C(C)N2CCC(NS(=O)(=O)c3ccccc3)CC2)n1` (centres undefined): the cytotoxicity at 70.5 h is 19.7%.

In the case of `O=C(NCC1CCCN1Cc1ccccc1)NCC1(O)CCC1` (centres undefined), the cytotoxicity at 70.5 h came out at 31.1%.

`CC(=O)NCC1CCN(Cc2nc(C3CC3)no2)CC1`: the cytotoxicity at 70.5 h was -6.87%.

Consider `CC(C)Oc1ccc(CNC(=O)C2CCC(=O)N2)cn1` (centres undefined), for which the cytotoxicity at 70.5 h was determined as 23%.

Turning to `CCCC(=O)NCc1ccc(N2CCCCC2)cc1`, the cytotoxicity at 70.5 h is -10.2%.

As to `CC(CNC(=O)c1nnn(-c2ccccc2)c1C(F)(F)F)N(C)C` (centres undefined), the cytotoxicity at 70.5 h is -8.59%.

For the compound `Cc1nnc2n1CCN(CC(=O)NC(C)c1cccc3ccccc13)C2` (centres undefined), the cytotoxicity at 70.5 h was 2.87%.

For the compound `Cn1c(=O)[nH]c2cc(C(=O)OCC(F)F)ccc21`, the cytotoxicity at 70.5 h is 19.9%.

Consider `CNC(=O)NC(=O)CN1CCN(CC2CC2)c2ccccc21`, for which the cytotoxicity at 70.5 h is 1.66%.

Consider `O=C(NC1CCS(=O)(=O)c2ccccc21)c1sccc1C1CC1` (centres undefined), for which the cytotoxicity at 70.5 h is -7.25%.

With `O=C(NCc1nncn1C1CC1)C1(c2ccc(F)cc2)CCOCC1`, the cytotoxicity at 70.5 h came out at 16.9%.

Take `CCCc1nc(CN(C)CCOc2ccccc2)cs1`: the cytotoxicity at 70.5 h is -8.59%.

On to `Cc1cc(CNCC2CCCN(C(=O)OC(C)(C)C)C2)no1` (centres undefined), for which the cytotoxicity at 70.5 h is -6.15%.

With `O[C@H]1Cc2ccccc2[C@H]1Nc1ncccc1C(F)(F)F`, the cytotoxicity at 70.5 h was -4.3%.

Turning to `Cc1cc(C(=O)NCC2CCCC2)c(C)n1-c1cccnc1`, the cytotoxicity at 70.5 h is -6.04%.

Turning to `CC(c1ncc(C(C)(C)C)o1)N1CCN(Cc2ccc(Cl)s2)CC1` (centres undefined), the cytotoxicity at 70.5 h was found to be 16.2%.

Take `CCOc1ccnc(N2CCCN(c3nc(C4CC4)ns3)CC2)n1`: the cytotoxicity at 70.5 h is 4.37%.

As for `Cc1nn(C)c(C)c1C1CCCN1CCCC#N` (centres undefined), the cytotoxicity at 70.5 h was -4.71%.

As to `CCOc1ccc(CN2CCc3nc4ccsc4c(=O)n3CC2)cc1`, the cytotoxicity at 70.5 h is -6.57%.

For `Clc1ccccc1CN1CCc2nc(C3CCNCC3)ncc2C1`, the cytotoxicity at 70.5 h was -6.61%.

Take `Cc1ccc(-c2n[nH]cc2CNCC2CCN(CC(F)(F)F)C2)o1` (centres undefined): the cytotoxicity at 70.5 h is -1.74%.

On to `c1cncc(-c2nccc(CN3CCC(N4CCCCC4)CC3)n2)c1`, for which the cytotoxicity at 70.5 h stood at 18.5%.

On to `CCn1cc(CN2C[C@@H]3CCCN3C[C@@H]2CCSC)cn1`, for which the cytotoxicity at 70.5 h is -2.81%.

For `Cc1cc(C[C@@H]2COC[C@H]2NCc2ccc(C(F)(F)F)cc2)on1`, the cytotoxicity at 70.5 h is -5.79%.

For `Cc1ccc(CN[C@@H]2COC[C@H]2Cc2cc(C)no2)cc1`, the cytotoxicity at 70.5 h is -7.63%.

(Values after ChEMBL document CHEMBL3507680, “University of Dundee, Gates Library screen for HepG2 cell viability”.)
